The values that follow come from patent US20060205749A1, “Remedy and/or preventive for lung diseases” (priority 2003, published 2006).

Assay [1] has as its system neutrophils in BALF, mainstream of cigarette smoke induced pulmonary injury model. Kind of assay: Inhibitory effect on increase of neutrophils in mainstream of cigarette smoke induced pulmonary injury model. It is filed as in vivo. The settings on record: male CD rats, 0.3 mg/body orally 10 to 12 hours before exposure to mainstream of cigarette smoke, BAL after the exposure for 6 hours. The procedure:
Compound (I) was suspended to the concentration of 0.6 mg/mL in a physiological saline containing 25% Alevaire (registered trademark, Azwell, Osaka), which is an inhalant for respiratory organs, (administration solvent). The suspension was used for the test. The suspension is referred to as a “suspension for the administration of Compound (I)”.
First, 0.5 mL of the administration solvent or the suspension for the administration of Compound (I) per kilogram of body weight was administered orally to male CD rats aged 6 to 7 weeks (Charles River Japan, Kanagawa). After 10 to 12 hours, the rats were systemically exposed to mainstream of cigarette smoke (Hi-Lite, Japan Tobacco Inc., Tokyo) using a smoking exposure instrument (M•I•P•S, Osaka). The exposure to the mainstream of cigarette smoke for 5 minutes and then exposure to air for 10 minutes were successively performed by repeating them eight times.
A group subjected to the administration of the administration solvent and exposure to air instead of mainstream of cigarette smoke is referred to as a “solvent administration group”. […]
After the exposure for 6 hours, BALs were performed with Hanks' solution [Hanks' Balanced Salt Solution (Invitrogen Corporation, CA, USA)] […] All of the BALFs were recovered and subjected to treatment as in Test example 1, and then the numbers of neutrophils were measured. […]

For assay [2], the system named is neutrophils in BALF, lipopolysaccharide (LPS)-induced pulmonary injury model. Kind of assay: Inhibitory effect on increase of neutrophils in LPS-induced pulmonary injury model. The conditions noted are these: male BALB/c mice, 0.1 mg/body intratracheally together with LPS, BAL 6 hours after administration. The class given is in vivo. The procedure:
Physiological saline containing 25% Alevaire (registered trademark, Azwell Inc., Osaka) which is an inhalant for respiratory organs (administration solvent), or administration solvent dissolving 300 ng/mL of LPS (manufactured by Sigma-Aldrich, Mo., USA) were administered intratracheally to 9-week-old male BALB/c mice (Charles River Japan, Kanagawa) in an amount of 0.1 mL respectively. Then bronchoalveolar lavages (BALS) were performed 6 hours after the intratracheal administration (These administration groups were referred to as a “solvent administration group” and an “LPS administration group”, respectively). […]
The recovered bronchoalveolar lavage fluids (BALFS) were centrifuged at 570×g for 10 minutes at 4° C., followed by removal of supernatants to obtain pellets. […] The total numbers of leukocytes were counted with an automatic blood cell counter Celltac α (Nihon Kohden Corporation, Tokyo). […] Then, the numbers of cells were counted under a microscope (400×).
The number of cells was counted up to 300 in total while macrophages, neutrophils and lymphocytes were distinguished. Then, the ratio of each cell was calculated (equation 1). The number of neutrophils was calculated from the ratio of neutrophils and the total number of leukocytes (equation 2). The inhibition ratio of the increase in number of neutrophils by the administration of Compound (I) was calculated by equation 3. […]

Take `COc1ccc(C(=O)Cc2c(Cl)cncc2Cl)c2c1OC1(CCCC1)O2` [Compound (I), 7-[2-(3,5-dichloro-4-pyridyl)-1-oxoethyl]-4-methoxy-spiro[1,3-benzodioxol-2,1′-cyclopentane]]: the “Inhibition ratio of increase in number of neutrophil” value in assay [1] amounted to 81%. Besides, the Number of neutrophils in assay [1] (mean ± standard error) is 0.34 ± 0.13 ×10^5 cells/BALF; in assay [2] (mean ± standard error), 0.72 ± 0.22 ×10^5 cells/BALF. Also, the “Inhibition ratio of increase in number of neutrophils” value in assay [2] (equation 3) stood at 47%.
